Data as given in patent publication US7098215B2, “Nitrogenous compounds and antiviral drugs containing the same” (Kureha Chemical Industry Co., Ltd., priority 2000, dated 2006).

What follows are compounds tested on HIV-1IIIB infected MT-4 cells (assay: Anti-HIV activity: protection of HIV-1IIIB infected MT-4 cells, MTT method). Details: MOI 0.01, culture for 5 days, concentration inhibiting 50% of cytotoxicity due to HIV infection.
Type: cell-based
Protocol: HIV-1IIIB infected MT-4 cells were added to 96-well microtiter plates (3.0×10^4/well, MOI (Multiplicity of infection): 0.01), together with test compounds at different concentrations immediately after the infection. After culture for 5 days in a carbon dioxide incubator at 37° C., the number of surviving cells was counted by MTT (tetrazolium) method (Pawels et al., J. Virol. Methods, 20, 309-321, 1988).

Structure (SMILES) | EC50 [nM]
Cn1cccc1CNCCC[C@H](NC(=O)c1ccc(CNCc2ccccn2)cc1)C(=O)NCc1cccc2ccccc12 [Compound No. 5, (S)-2-(4-(N-2-picolylaminomethyl)benzoylamino)-5-((1-methylpyrrol-2-ylmethyl)amino)valeric acid 1-naphthalenemethylamide] | 804
O=C(N[C@@H](CCCNC1CCCc2cccnc21)C(=O)NCc1cccc2ccccc12)c1ccc(CNCc2ncc[nH]2)s1 (stereo partly drawn) [Compound No. 16, (2S)-2-(5-(N-(imidazol-2-ylmethyl)aminomethyl)thiophene-2-carbonylamino)-5-(5,6,7,8-tetrahydroquinolin-8-yl)aminovaleric acid 1-naphthalenemethylamide] | 633
O=C(N[C@@H](CCCNCc1ncc[nH]1)C(=O)NCc1cccc2ccccc12)c1ccc(CNCc2ncc[nH]2)cc1 [Compound No. 21, (S)-2-(4-((imidazol-2-ylmethyl)aminomethyl)benzoylamino)-5-((imidazol-2-ylmethyl)amino)valeric acid 1-naphthalenemethylamide] | 828
Cn1cccc1CNCCC[C@H](NC(=O)c1ccc(CNCc2nccn2C)cc1)C(=O)NCc1cccc2ccccc12 [Compound No. 30, (S)-2-(4-((1-methylimidazol-2-ylmethyl)aminomethyl)benzoylamino)-5-((1-methylpyrrol-2-ylmethyl)amino)valeric acid 1-naphthalenemethylamide] | 662
NC(N)=NCCC[C@H](NC(=O)c1ccc(CNCc2ccccn2)cc1)C(=O)NCc1cccc2ccccc12 [Compound No. 43, N^α-(4-(N-2-picolylaminomethyl)benzoyl)-L-arginine 1-naphthalenemethylamide] | 118
N=C(N)NCCC[C@H](NC(=O)c1ccc(CNCc2ccccn2)c2ccccc12)C(=O)NCc1cccc2ccccc12 [Compound No. 44, N^α-(4-(N-2-picolylaminomethyl)naphthoyl)-L-arginine 1-naphthalenemethylamide] | 126
N=C(N)NCCC[C@H](NC(=O)c1ccc(CNCc2ncc[nH]2)cc1)C(=O)NCc1cccc2ccccc12 [Compound No. 53, N^α-(4-(imidazol-2-ylmethyl)aminomethylbenzoyl)-L-arginine 1-naphthalenemethylamide] | 150
O=C(N[C@@H](CCCNCc1ccccn1)C(=O)NCc1cccc2ccccc12)c1ccc(CNCc2ccccn2)cc1 [Compound No. 60, (S)-2-(4-(N-2-picolylaminomethyl)benzoylamino)-5-(N-2-picolylamino)valeric acid 1-naphthalenemethylamide] | 158
O=C(N[C@@H](CCNCc1ccccn1)C(=O)NCc1cccc2ccccc12)c1ccc(CNCc2ccccn2)cc1 [Compound No. 61, (S)-2-(4-(N-2-picolylamino)methylbenzoylamino)-4-(N-2-picolylamino)butyric acid 1-naphthalenemethylamide] | 2620
O=C(N[C@@H](CCCNC1CCCc2cccnc21)C(=O)NCc1cccc2ccccc12)c1ccc(CNC2CCCc3cccnc32)cc1 (stereo partly drawn) [Compound No. 64, (2S)-2-(4-((5,6,7,8-tetrahydroquinolin-8-yl)aminomethyl)benzoylamino)-5-((5,6,7,8-tetrahydroquinolin-8-yl)amino)valeric acid 1-naphthalenemethylamide] | 114
C[C@H](NC(=O)[C@H](CCCNC1CCCc2cccnc21)NC(=O)c1ccc(CNCc2ccccn2)nc1)c1cccc2ccccc12 (stereo partly drawn) [Compound No. 83, (2S)-2-(2-(N-2-picolylaminomethyl)pyridin-5-ylcarbonyl)amino-5-(5,6,7,8-tetrahydroquinolin-8-yl)aminovaleric acid (1′S)-1′-(1-naphthyl)ethylamide] | 121
C[C@H](NC(=O)[C@H](CCCNC1CCCc2cccnc21)NC(=O)c1ccc(CNCc2ccccn2)c2ccccc12)c1cccc2ccccc12 (stereo partly drawn) [Compound No. 85, (2S)-2-(4-(N-2-picolylaminomethyl)naphthoyl)amino-5-(5,6,7,8-tetrahydroquinolin-8-yl)aminovaleric acid (1′S)-1′-(1-naphthyl)ethylamide] | 29
